Assay results published in patent publication US10000791B2, “Measurement method for human pancreatic lipase activity” (ASAHI KASEI PHARMA CORPORATION, priority 2013, dated 2018).

What was measured:
non-pancreatic lipase = assay: quantitative evaluation of influence of non-pancreatic lipase (measured value versus theoretical or reference value in heparin-administered samples); format: biochemical, human
Description: Next, the influence of the non-pancreatic lipase activity was obtained as follows on the assumption that the Liquitech reagent is not influenced by the non-pancreatic lipase. First, with respect to measured values of the enzyme activity obtained in samples other than the heparin-administered samples, a regression equation (an independent variable X: enzyme activity attained by Liquitech, a dependent variable Y: enzyme activity attained by the comparative example or the present example) was obtained. Next, with respect to each heparin-administered sample, the variable Y was calculated as a theoretical value by substituting the measured value of the enzyme activity obtained by the Liquitech for the variable X of the regression equation. Thereafter, with respect to each heparin-administered sample, the actually measured value of the enzyme activity obtained by the comparative example or the present example was divided by the theoretical value of the variable Y to calculate a relative percentage (%). It is noted that the acceptable range of the influence was provisionally set as within ±20% in reference to the package insert of “Liquitech Lipase Color II” describing that the accuracy is within ±15% of known activity.
In the present example, NaGDCA was selected as the conjugated bile acid and was combined with a non-conjugated bile acid, NaDCA, (mixed in equal amounts) to examine the behavior of a heparin-administered sample with the pH of a reaction solution changed to 7.1, 7.4 and 7.6. As the buffer solution, the BES buffer was used. As samples, (four) control samples (controls each containing a pancreatic lipase), (ten) normal samples and (nine) heparin-administered samples were used. As a comparative example, NaDCA (in a concentration of 30 mmol/L in the R-1) and NaTDCA (in a concentration of 10 mmol/L in the R-1) were used as the bile acid, and the reaction solution was adjusted to pH 7.95 (the Bicine buffer). Besides, “Liquitech Lipase Color II” manufactured by Roche Diagnostics was used for verifying the effect of the present example. “Liquitech Lipase Color II” was used in accordance with the package insert, and a special calibrator was used for calculating the enzyme activity. Thereafter, in the same manner as in Example 7, with respect to each heparin-administered sample, the actually measured value of the enzyme activity obtained by the comparative example or the present example was divided by the theoretical value to calculate a relative percentage (%). The influence of the non-pancreatic lipase activity and the acceptable range of the influence were the same as those in Example 7.
As a comparative example, NaDCA and NaTDCA (respectively in concentrations of 30 mmol/L and 10 mmol/L in the R-1) were used as the bile acids, and the reaction solution was adjusted to pH 7.95 by using the Bicine buffer to measure a heparin-administered sample. […] The bile acids were used in a total concentration in the R-1 of 40 mmol/L (each in 20 mmol/L in using two of them, and each in 13.3 mmol/L in using three of them). Besides, “Liquitech Lipase Color II” manufactured by Roche Diagnostics was used for verifying the effect of the present example. “Liquitech Lipase Color II” was used in accordance with the package insert, and a special calibrator was used for calculating the enzyme activity. In each of the comparative example and the present example, the lipase activity was calculated by using a molecular extinction coefficient of 6300 L/mol·cm of the reduced NADP. Thereafter, in the same manner as in Example 7, with respect to each heparin-administered sample, the actually measured value of the enzyme activity obtained by the comparative example or the present example was divided by the theoretical value to calculate a relative percentage (%). The influence of the non-pancreatic lipase activity and the acceptable range of the influence were calculated in the same manner as in Example 7.

human pancreatic lipase = assay: pH dependence of human pancreatic lipase activity in the presence of bile acids (diglyceride substrate, UV method); format: biochemical; conditions: pH 7.2

C[C@H](CCC(=O)NCC(=O)[O-])[C@H]1CC[C@H]2[C@@H]3[C@H](O)C[C@@H]4C[C@H](O)CC[C@]4(C)[C@H]3CC[C@]12C.[Na+] [NaGCDCA, sodium glycochenodeoxycholate]
Measured value/theoretical value (Table 5) (non-pancreatic lipase; sample Heparin 31, pH 7.0): 98.4% | Measured value/theoretical value (Table 5) (non-pancreatic lipase; sample Heparin 31, pH 7.95): 311.8% | Measured value/theoretical value (Table 5) (non-pancreatic lipase; sample Heparin 32, pH 7.0): 98.5% | Measured value/theoretical value (Table 5) (non-pancreatic lipase; sample Heparin 32, pH 7.95): 492.8% | Measured value/theoretical value (Table 5) (non-pancreatic lipase; sample PRECINORM, pH 7.0): 99.3% | Measured value/theoretical value (Table 5) (non-pancreatic lipase; sample PRECINORM, pH 7.95): 107.6% | Measured value/theoretical value (Table 5) (non-pancreatic lipase; sample PRECIPATH, pH 7.0): 100.9% | Measured value/theoretical value (Table 5) (non-pancreatic lipase; sample PRECIPATH, pH 7.95): 111.6% | Measured value/theoretical value (Table 5) (non-pancreatic lipase; sample Pool 1, pH 7.0): 101.8% | Measured value/theoretical value (Table 5) (non-pancreatic lipase; sample Pool 1, pH 7.95): 99.4% | Measured value/theoretical value (Table 5) (non-pancreatic lipase; sample Pool 2, pH 7.0): 89.8% | Measured value/theoretical value (Table 5) (non-pancreatic lipase; sample Pool 2, pH 7.95): 126.2% | Measured value/theoretical value (Table 5) (non-pancreatic lipase; sample Seraclear LP, pH 7.0): 87.0% | Measured value/theoretical value (Table 5) (non-pancreatic lipase; sample Seraclear LP, pH 7.95): 60.4%

C[C@H](CCC(=O)NCCS(=O)(=O)[O-])[C@H]1CC[C@H]2[C@@H]3CC[C@@H]4C[C@H](O)CC[C@]4(C)[C@H]3C[C@H](O)[C@]12C.[Na+] [NaTDCA, sodium taurodeoxycholate]
actually measured value/theoretical value (Table 4) (non-pancreatic lipase; Average of Heparin 21-25, pH 6.2): 104.1% | actually measured value/theoretical value (Table 4) (non-pancreatic lipase; Average of Heparin 21-25, pH 6.4): 102.7% | actually measured value/theoretical value (Table 4) (non-pancreatic lipase; Average of Heparin 21-25, pH 6.6): 97.8% | actually measured value/theoretical value (Table 4) (non-pancreatic lipase; Average of Heparin 21-25, pH 6.9): 94.9% | actually measured value/theoretical value (Table 4) (non-pancreatic lipase; Average of Heparin 21-25, pH 7.2): 100.9% | actually measured value/theoretical value (Table 4) (non-pancreatic lipase; Average of Heparin 21-25, pH 7.4): 119.2% | actually measured value/theoretical value (Table 4) (non-pancreatic lipase; Average of Heparin 21-25, pH 7.6): 212.1% | actually measured values relative to theoretical values, average (non-pancreatic lipase; heparin-administered samples, pH 7.4 or lower): smaller than 120.0% | actually measured value/theoretical value (Table 4) (non-pancreatic lipase; sample Heparin 21, pH 6.2): 118.4% | actually measured value/theoretical value (Table 4) (non-pancreatic lipase; sample Heparin 21, pH 6.4): 110.6% | actually measured value/theoretical value (Table 4) (non-pancreatic lipase; sample Heparin 21, pH 6.6): 109.4% | actually measured value/theoretical value (Table 4) (non-pancreatic lipase; sample Heparin 21, pH 6.9): 99.9% | actually measured value/theoretical value (Table 4) (non-pancreatic lipase; sample Heparin 21, pH 7.2): 99.1% | actually measured value/theoretical value (Table 4) (non-pancreatic lipase; sample Heparin 21, pH 7.4): 118.3% | actually measured value/theoretical value (Table 4) (non-pancreatic lipase; sample Heparin 21, pH 7.6): 167.2% | actually measured value/theoretical value (Table 4) (non-pancreatic lipase; sample Heparin 22, pH 6.2): 100.6% | actually measured value/theoretical value (Table 4) (non-pancreatic lipase; sample Heparin 22, pH 6.4): 100.8% | actually measured value/theoretical value (Table 4) (non-pancreatic lipase; sample Heparin 22, pH 6.6): 93.6% | actually measured value/theoretical value (Table 4) (non-pancreatic lipase; sample Heparin 22, pH 6.9): 86.0% | actually measured value/theoretical value (Table 4) (non-pancreatic lipase; sample Heparin 22, pH 7.2): 98.5% | actually measured value/theoretical value (Table 4) (non-pancreatic lipase; sample Heparin 22, pH 7.4): 107.8% | actually measured value/theoretical value (Table 4) (non-pancreatic lipase; sample Heparin 22, pH 7.6): 162.0% | actually measured value/theoretical value (Table 4) (non-pancreatic lipase; sample Heparin 23, pH 6.2): 112.9% | actually measured value/theoretical value (Table 4) (non-pancreatic lipase; sample Heparin 23, pH 6.4): 115.8% | actually measured value/theoretical value (Table 4) (non-pancreatic lipase; sample Heparin 23, pH 6.6): 111.4% | actually measured value/theoretical value (Table 4) (non-pancreatic lipase; sample Heparin 23, pH 6.9): 114.9% | actually measured value/theoretical value (Table 4) (non-pancreatic lipase; sample Heparin 23, pH 7.2): 110.5% | actually measured value/theoretical value (Table 4) (non-pancreatic lipase; sample Heparin 23, pH 7.4): 129.2% | actually measured value/theoretical value (Table 4) (non-pancreatic lipase; sample Heparin 23, pH 7.6): 281.9% | actually measured value/theoretical value (Table 4) (non-pancreatic lipase; sample Heparin 24, pH 6.2): 95.4% | actually measured value/theoretical value (Table 4) (non-pancreatic lipase; sample Heparin 24, pH 6.4): 91.7% | actually measured value/theoretical value (Table 4) (non-pancreatic lipase; sample Heparin 24, pH 6.6): 83.0% | actually measured value/theoretical value (Table 4) (non-pancreatic lipase; sample Heparin 24, pH 6.9): 84.4% | actually measured value/theoretical value (Table 4) (non-pancreatic lipase; sample Heparin 24, pH 7.2): 96.0% | actually measured value/theoretical value (Table 4) (non-pancreatic lipase; sample Heparin 24, pH 7.4): 113.2% | actually measured value/theoretical value (Table 4) (non-pancreatic lipase; sample Heparin 24, pH 7.6): 215.2% | actually measured value/theoretical value (Table 4) (non-pancreatic lipase; sample Heparin 25, pH 6.2): 93.1% | actually measured value/theoretical value (Table 4) (non-pancreatic lipase; sample Heparin 25, pH 6.4): 94.7% | actually measured value/theoretical value (Table 4) (non-pancreatic lipase; sample Heparin 25, pH 6.6): 91.7% | actually measured value/theoretical value (Table 4) (non-pancreatic lipase; sample Heparin 25, pH 6.9): 89.5% | actually measured value/theoretical value (Table 4) (non-pancreatic lipase; sample Heparin 25, pH 7.2): 100.2% | actually measured value/theoretical value (Table 4) (non-pancreatic lipase; sample Heparin 25, pH 7.4): 127.4% | actually measured value/theoretical value (Table 4) (non-pancreatic lipase; sample Heparin 25, pH 7.6): 234.4% | proportion of the bile acid to the substrate for attaining the maximum lipase activity (human pancreatic lipase; substrate concentration 1.40 mmol/L): about 17 | proportion of the bile acid to the substrate for attaining the maximum lipase activity (human pancreatic lipase; substrate concentration 1.63 mmol/L): about 15
